ChEMBL document CHEMBL5046300, “Potent Bactericidal Antimycobacterials Targeting the Chaperone ClpC1 Based on the Depsipeptide Natural Products Ecumicin and Ohmyungsamycin A” (2022)
≈ marks a conversion by molar mass, not a printed value. *1 amine or outer side, *2 acyl side, *3 side chain or, on linkers, in order; H or OH if unused. Where a SMILES comes first, the peptide text is derived from it. Bridges are numbered along the chain shown (N, C = ends). [ ]: non-standard residue; d: D form. The star is where a group is joined. Phe(3R-OH) = O=C([C@@H](N[*:1])[C@H](O[*:3])c1ccccc1)[*:2]; NMeTrp(4-OMe) = CN[C@@H](Cc1c[nH]c2cccc(OC)c12)C(=O)O; NMeW = CN[C@@H](Cc1c[nH]c2ccccc12)C(=O)O; NMe2Val = CC(C)[C@@H](C(=O)*)N(C)C; Hyp = O=C(O)[C@@H]1C[C@@H](O)CN1; NMeChg = CN[C@H](C(=O)O)C1CCCCC1; NMeT = CN[C@H](C(=O)O)[C@@H](C)O; NMeD = CN[C@@H](CC(=O)O)C(=O)O; NMeL = CN[C@@H](CC(C)C)C(=O)O; NMeNle = CCCC[C@H](NC)C(=O)O; NMeDap = CN[C@@H](CN)C(=O)O; NMeNva = CCC[C@H](NC)C(=O)O; NMeV = CN[C@H](C(=O)O)C(C)C; NMeS = CN[C@@H](CO)C(=O)O; Pip = O=C(O)[C@@H]1CCCCN1; Sar = CNCC(=O)O

tested on: Mycobacterium tuberculosis; assay: Antimycobacterial activity against Mycobacterium tuberculosis mc2 6230 measured after 7 days; format: functional; conditions: mc2 6230, 168 h, time 7 day

SMILES | MIC
CN[C@H](C(=O)N[C@H](C(=O)N[C@@H]1C(=O)N(C)[C@@H]([C@@H](C)O)C(=O)N[C@@H](C(C)C)C(=O)N(C)[C@@H](CC(C)C)C(=O)N[C@@H](C(C)C)C(=O)N2CCC[C@H]2C(=O)N(C)[C@@H](Cc2c[nH]c3ccccc23)C(=O)N[C@@H](C(C)C)C(=O)N[C@@H](Cc2ccccc2)C(=O)N[C@@H](C(C)C)C(=O)O[C@@H]1C)C(C)C)C(C)C (H-[NMeV]VT[NMeT]V[NMeL]VP[NMeW]VFV; ester 3-C) | 8 µM (≈ 11.2 µg/mL)
CN[C@H](C(=O)N[C@H](C(=O)N[C@@H]1C(=O)N(C)[C@@H]([C@@H](C)O)C(=O)N[C@@H](C(C)C)C(=O)N(C)[C@@H](CC(C)C)C(=O)N[C@@H](C(C)C)C(=O)N2C[C@H](O)C[C@H]2C(=O)N(C)[C@@H](Cc2c[nH]c3ccccc23)C(=O)N[C@@H](C(C)C)C(=O)N[C@@H](Cc2ccccc2)C(=O)N[C@@H](C(C)C)C(=O)O[C@@H]1C)C(C)C)C(C)C (H-[NMeV]VT[NMeT]V[NMeL]V[Hyp][NMeW]VFV; ester 3-C) | 8 µM (≈ 11.3 µg/mL)
CN[C@H](C(=O)N[C@H](C(=O)N[C@@H]1C(=O)N(C)[C@@H]([C@@H](C)O)C(=O)N[C@@H](C(C)C)C(=O)N(C)[C@@H](CC(C)C)C(=O)N[C@@H](C(C)C)C(=O)N(C)[C@@H](C2CCCCC2)C(=O)N(C)[C@@H](Cc2c[nH]c3ccccc23)C(=O)N[C@@H](C(C)C)C(=O)N[C@@H](Cc2ccccc2)C(=O)N[C@@H](C(C)C)C(=O)O[C@@H]1C)C(C)C)C(C)C (H-[NMeV]VT[NMeT]V[NMeL]V[NMeChg][NMeW]VFV; ester 3-C) | 0.5 µM (≈ 0.726 µg/mL)
CN[C@H](C(=O)N[C@H](C(=O)N[C@@H]1C(=O)N(C)[C@@H]([C@@H](C)O)C(=O)N[C@@H](C(C)C)C(=O)N(C)[C@@H](CC(C)C)C(=O)N[C@@H](C(C)C)C(=O)N(C)[C@@H](CC(=O)O)C(=O)N(C)[C@@H](Cc2c[nH]c3ccccc23)C(=O)N[C@@H](C(C)C)C(=O)N[C@@H](Cc2ccccc2)C(=O)N[C@@H](C(C)C)C(=O)O[C@@H]1C)C(C)C)C(C)C (H-[NMeV]VT[NMeT]V[NMeL]V[NMeD][NMeW]VFV; ester 3-C) | 32 µM (≈ 45.7 µg/mL)
CN[C@H](C(=O)N[C@H](C(=O)N[C@@H]1C(=O)N(C)[C@@H]([C@@H](C)O)C(=O)N[C@@H](C(C)C)C(=O)N(C)[C@@H](CC(C)C)C(=O)N[C@@H](C(C)C)C(=O)N(C)[C@@H](CN)C(=O)N(C)[C@@H](Cc2c[nH]c3ccccc23)C(=O)N[C@@H](C(C)C)C(=O)N[C@@H](Cc2ccccc2)C(=O)N[C@@H](C(C)C)C(=O)O[C@@H]1C)C(C)C)C(C)C (H-[NMeV]VT[NMeT]V[NMeL]V[NMeDap][NMeW]VFV; ester 3-C) | 2 µM (≈ 2.8 µg/mL)
CCCC[C@H]1C(=O)N(C)[C@@H](Cc2c[nH]c3ccccc23)C(=O)N[C@@H](C(C)C)C(=O)N[C@@H](Cc2ccccc2)C(=O)N[C@@H](C(C)C)C(=O)O[C@H](C)[C@H](NC(=O)[C@@H](NC(=O)[C@@H](NC)C(C)C)C(C)C)C(=O)N(C)[C@@H]([C@@H](C)O)C(=O)N[C@@H](C(C)C)C(=O)N(C)[C@@H](CC(C)C)C(=O)N[C@@H](C(C)C)C(=O)N1C (H-[NMeV]VT[NMeT]V[NMeL]V[NMeNle][NMeW]VFV; ester 3-C) | 0.5 µM (≈ 0.713 µg/mL)
CCC[C@H]1C(=O)N(C)[C@@H](Cc2c[nH]c3ccccc23)C(=O)N[C@@H](C(C)C)C(=O)N[C@@H](Cc2ccccc2)C(=O)N[C@@H](C(C)C)C(=O)O[C@H](C)[C@H](NC(=O)[C@@H](NC(=O)[C@@H](NC)C(C)C)C(C)C)C(=O)N(C)[C@@H]([C@@H](C)O)C(=O)N[C@@H](C(C)C)C(=O)N(C)[C@@H](CC(C)C)C(=O)N[C@@H](C(C)C)C(=O)N1C (H-[NMeV]VT[NMeT]V[NMeL]V[NMeNva][NMeW]VFV; ester 3-C) | 0.5 µM (≈ 0.706 µg/mL)
CN[C@H](C(=O)N[C@H](C(=O)N[C@@H]1C(=O)N(C)[C@@H]([C@@H](C)O)C(=O)N[C@@H](C(C)C)C(=O)N(C)[C@@H](CC(C)C)C(=O)N[C@@H](C(C)C)C(=O)N(C)[C@@H](CO)C(=O)N(C)[C@@H](Cc2c[nH]c3ccccc23)C(=O)N[C@@H](C(C)C)C(=O)N[C@@H](Cc2ccccc2)C(=O)N[C@@H](C(C)C)C(=O)O[C@@H]1C)C(C)C)C(C)C (H-[NMeV]VT[NMeT]V[NMeL]V[NMeS][NMeW]VFV; ester 3-C) | 2 µM (≈ 2.8 µg/mL)
CN[C@H](C(=O)N[C@H](C(=O)N[C@@H]1C(=O)N(C)[C@@H]([C@@H](C)O)C(=O)N[C@@H](C(C)C)C(=O)N(C)[C@@H](CC(C)C)C(=O)N[C@@H](C(C)C)C(=O)N(C)[C@@H](Cc2c[nH]c3ccccc23)C(=O)N(C)[C@@H](Cc2c[nH]c3ccccc23)C(=O)N[C@@H](C(C)C)C(=O)N[C@@H](Cc2ccccc2)C(=O)N[C@@H](C(C)C)C(=O)O[C@@H]1C)C(C)C)C(C)C (H-[NMeV]VT[NMeT]V[NMeL]V[NMeW][NMeW]VFV; ester 3-C) | 0.5 µM (≈ 0.75 µg/mL)
CN[C@H](C(=O)N[C@H](C(=O)N[C@@H]1C(=O)N(C)[C@@H]([C@@H](C)O)C(=O)N[C@@H](C(C)C)C(=O)N(C)[C@@H](CC(C)C)C(=O)N[C@@H](C(C)C)C(=O)N2CCCC[C@H]2C(=O)N(C)[C@@H](Cc2c[nH]c3ccccc23)C(=O)N[C@@H](C(C)C)C(=O)N[C@@H](Cc2ccccc2)C(=O)N[C@@H](C(C)C)C(=O)O[C@@H]1C)C(C)C)C(C)C (H-[NMeV]VT[NMeT]V[NMeL]V[Pip][NMeW]VFV; ester 3-C) | 4 µM (≈ 5.64 µg/mL)
CN[C@H](C(=O)N[C@H](C(=O)N[C@@H]1C(=O)N(C)[C@@H]([C@@H](C)O)C(=O)N[C@@H](C(C)C)C(=O)N(C)[C@@H](CC(C)C)C(=O)N[C@@H](C(C)C)C(=O)N(C)CC(=O)N(C)[C@@H](Cc2c[nH]c3ccccc23)C(=O)N[C@@H](C(C)C)C(=O)N[C@@H](Cc2ccccc2)C(=O)N[C@@H](C(C)C)C(=O)O[C@@H]1C)C(C)C)C(C)C (H-[NMeV]VT[NMeT]V[NMeL]V[Sar][NMeW]VFV; ester 3-C) | 8 µM (≈ 11 µg/mL)
COc1cccc2[nH]cc(C[C@H]3C(=O)N[C@@H](C(C)C)C(=O)N[C@@H]([C@H](O)c4ccccc4)C(=O)N[C@@H](C(C)C)C(=O)O[C@H](C)[C@H](NC(=O)[C@@H](NC(=O)[C@H](C(C)C)N(C)C)C(C)C)C(=O)N(C)[C@@H]([C@@H](C)O)C(=O)N[C@@H](C(C)C)C(=O)N(C)[C@@H](CC(C)C)C(=O)N[C@@H](C(C)C)C(=O)N(C)[C@@H](C(C)C)C(=O)N3C)c12 (NMe2Val-VT[NMeT]V[NMeL]V[NMeV][NMeTrp(4-OMe)]V[Phe(3R-OH)]V; ester 2-C) | 0.5 µM (≈ 0.736 µg/mL)
